Data published in ChEMBL document CHEMBL5550123, “Discovery of novel pyridone-benzamide derivatives possessing a 1-methyl-2-benzimidazolinone moiety as potent EZH2 inhibitors for the treatment of B-cell lymphomas” (Bioorg Med Chem, 2024).

Experiments:
KARPAS-422 [1] = assay: Induction of apoptosis in human KARPAS-422 cells assessed as late apoptotic cells at 10 nM incubated for 72 hrs again compound diluted in growth medium measured after 96 hrs by annexin-V FITC and propidium iodide based flow cytometry analysis (reference value: […]%); format: functional; settings: time 168 hrs
[2] = Metabolic stability in human liver microsomes assessed as half life at 1 uM measured upto 60 mins in presence of NADPH by LC-MS/MS analysis; format: ADME, Microsome
KARPAS-422 [3] = assay: Induction of cell cycle arrest in human KARPAS-422 cells assessed as accumulation of cells at S phase at 10 nM incubated for 72 hrs again compound diluted in growth medium measured after 96 hrs by propidium iodide staining based flow cytometry analysis (reference value: 35.89%); format: functional; settings: time 168 hrs
KARPAS-422 [4] = assay: Induction of apoptosis in human KARPAS-422 cells assessed as viable cells at 20 nM incubated for 72 hrs again compound diluted in growth medium measured after 96 hrs by annexin-V FITC and propidium iodide based flow cytometry analysis (reference value: 95.57%); format: functional; settings: time 168 hrs, read-out: Activity
KARPAS-422 [5] = assay: Induction of cell cycle arrest in human KARPAS-422 cells assessed as accumulation of cells at G2 phase at 5 nM incubated for 72 hrs again compound diluted in growth medium measured after 96 hrs by propidium iodide staining based flow cytometry analysis (reference value: 16.41%); format: functional; settings: time 168 hrs
[6] = Inhibition of EZH2 Y641N mutant (unknown origin) preincubated for 15 mins followed by substrate addition and measured after 45 mins by AlphaLISA assay; design: species or system Homo sapiens
KARPAS-422 [7] = assay: Induction of cell cycle arrest in human KARPAS-422 cells assessed as accumulation of cells at S phase at 2.5 nM incubated for 72 hrs again compound diluted in growth medium measured after 96 hrs by propidium iodide staining based flow cytometry analysis (reference value: 35.89%); format: functional; settings: time 168 hrs
[8] = Inhibition of EZH2 Y641F mutant (unknown origin) preincubated for 15 mins followed by substrate addition and measured after 45 mins by AlphaLISA assay; design: species or system Homo sapiens
KARPAS-422 [9] = assay: Induction of apoptosis in human KARPAS-422 cells assessed as late apoptotic cells at 10 nM incubated for 72 hrs again compound diluted in growth medium measured after 96 hrs by annexin-V FITC and propidium iodide based flow cytometry analysis (reference value: 0.74%); format: functional; settings: time 168 hrs
KARPAS-422 [10] = assay: Induction of cell cycle arrest in human KARPAS-422 cells assessed as accumulation of cells at S phase at 20 nM incubated for 72 hrs again compound diluted in growth medium measured after 96 hrs by propidium iodide staining based flow cytometry analysis (reference value: 35.89%); format: functional; settings: time 168 hrs
KARPAS-422 [11] = assay: Induction of cell cycle arrest in human KARPAS-422 cells assessed as accumulation of cells at G1 phase at 20 nM incubated for 72 hrs again compound diluted in growth medium measured after 96 hrs by propidium iodide staining based flow cytometry analysis (reference value: 47.71%); format: functional; settings: time 168 hrs
KARPAS-422 [12] = assay: Induction of cell cycle arrest in human KARPAS-422 cells assessed as accumulation of cells at G1 phase at 5 nM incubated for 72 hrs again compound diluted in growth medium measured after 96 hrs by propidium iodide staining based flow cytometry analysis (reference value: 47.71%); format: functional; settings: time 168 hrs
KARPAS-422 [13] = assay: Induction of apoptosis in human KARPAS-422 cells assessed as late apoptotic cells at 5 nM incubated for 72 hrs again compound diluted in growth medium measured after 96 hrs by annexin-V FITC and propidium iodide based flow cytometry analysis (reference value: […]%); format: functional; settings: time 168 hrs
[14] = Metabolic stability in human liver microsomes assessed as intrinsic clearance at 1 uM measured upto 60 mins in presence of NADPH by LC-MS/MS analysis; format: ADME, Microsome; settings: read-out: CLH
KARPAS-422 [15] = assay: Induction of apoptosis in human KARPAS-422 cells assessed as early apoptotic cells at 5 nM incubated for 72 hrs again compound diluted in growth medium measured after 96 hrs by annexin-V FITC and propidium iodide based flow cytometry analysis (reference value: 2.62%); format: functional; settings: time 168 hrs
KARPAS-422 [16] = assay: Induction of apoptosis in human KARPAS-422 cells incubated for 72 hrs again compound diluted in growth medium measured after 96 hrs by annexin-V FITC and propidium iodide based flow cytometry analysis; format: functional, cell-based; settings: dose 2.5-20 nM, time 168.0 hrs
KARPAS-422 [17] = assay: Antiproliferative activity against human KARPAS-422 cells assessed as inhibition of cell growth measured after 72 hrs by CCK-8 method; format: functional, cell-based; settings: KARPAS-422, 72 h
KARPAS-422 [18] = assay: Induction of apoptosis in human KARPAS-422 cells assessed as late apoptotic cells at 2.5 nM incubated for 72 hrs again compound diluted in growth medium measured after 96 hrs by annexin-V FITC and propidium iodide based flow cytometry analysis (reference value: […]%); format: functional; settings: time 168 hrs
KARPAS-422 [19] = assay: Induction of apoptosis in human KARPAS-422 cells assessed as early apoptotic cells at 2.5 nM incubated for 72 hrs again compound diluted in growth medium measured after 96 hrs by annexin-V FITC and propidium iodide based flow cytometry analysis (reference value: 2.62%); format: functional; settings: time 168 hrs
KARPAS-422 [20] = assay: Induction of cell cycle arrest in human KARPAS-422 cells assessed as accumulation of cells at G1 phase at 10 nM incubated for 72 hrs again compound diluted in growth medium measured after 96 hrs by propidium iodide staining based flow cytometry analysis (reference value: 47.71%); format: functional; settings: time 168 hrs
KARPAS-422 [21] = assay: Induction of apoptosis in human KARPAS-422 cells assessed as early apoptotic cells at 20 nM incubated for 72 hrs again compound diluted in growth medium measured after 96 hrs by annexin-V FITC and propidium iodide based flow cytometry analysis (reference value: 2.62%); format: functional; settings: time 168 hrs
KARPAS-422 [22] = assay: Induction of apoptosis in human KARPAS-422 cells assessed as early apoptotic cells at 10 nM incubated for 72 hrs again compound diluted in growth medium measured after 96 hrs by annexin-V FITC and propidium iodide based flow cytometry analysis (reference value: 2.62%); format: functional; settings: time 168 hrs
KARPAS-422 [23] = assay: Induction of apoptosis in human KARPAS-422 cells assessed as viable cells at 2.5 nM incubated for 72 hrs again compound diluted in growth medium measured after 96 hrs by annexin-V FITC and propidium iodide based flow cytometry analysis (reference value: 95.57%); format: functional; settings: time 168 hrs, read-out: Activity
KARPAS-422 [24] = assay: Induction of cell cycle arrest in human KARPAS-422 cells assessed as accumulation of cells at G2 phase at 20 nM incubated for 72 hrs again compound diluted in growth medium measured after 96 hrs by propidium iodide staining based flow cytometry analysis (reference value: 16.41%); format: functional; settings: time 168 hrs
KARPAS-422 [25] = assay: Induction of apoptosis in human KARPAS-422 cells assessed as late apoptotic cells at 2.5 nM incubated for 72 hrs again compound diluted in growth medium measured after 96 hrs by annexin-V FITC and propidium iodide based flow cytometry analysis (reference value: 0.74%); format: functional; settings: time 168 hrs
KARPAS-422 [26] = assay: Induction of apoptosis in human KARPAS-422 cells assessed as late apoptotic cells at 20 nM incubated for 72 hrs again compound diluted in growth medium measured after 96 hrs by annexin-V FITC and propidium iodide based flow cytometry analysis (reference value: 0.74%); format: functional; settings: time 168 hrs
KARPAS-422 [27] = assay: Induction of cell cycle arrest in human KARPAS-422 cells assessed as accumulation of cells at S phase at 5 nM incubated for 72 hrs again compound diluted in growth medium measured after 96 hrs by propidium iodide staining based flow cytometry analysis (reference value: 35.89%); format: functional; settings: time 168 hrs
KARPAS-422 [28] = assay: Induction of cell cycle arrest in human KARPAS-422 cells assessed as accumulation of cells at G2 phase at 2.5 nM incubated for 72 hrs again compound diluted in growth medium measured after 96 hrs by propidium iodide staining based flow cytometry analysis (reference value: 16.41%); format: functional; settings: time 168 hrs
KARPAS-422 [29] = assay: Induction of apoptosis in human KARPAS-422 cells assessed as viable cells at 10 nM incubated for 72 hrs again compound diluted in growth medium measured after 96 hrs by annexin-V FITC and propidium iodide based flow cytometry analysis (reference value: 95.57%); format: functional; settings: time 168 hrs, read-out: Activity
KARPAS-422 [30] = assay: Induction of apoptosis in human KARPAS-422 cells assessed as late apoptotic cells at 20 nM incubated for 72 hrs again compound diluted in growth medium measured after 96 hrs by annexin-V FITC and propidium iodide based flow cytometry analysis (reference value: […]%); format: functional; settings: time 168 hrs
KARPAS-422 [31] = assay: Induction of apoptosis in human KARPAS-422 cells assessed as viable cells at 5 nM incubated for 72 hrs again compound diluted in growth medium measured after 96 hrs by annexin-V FITC and propidium iodide based flow cytometry analysis (reference value: 95.57%); format: functional; settings: time 168 hrs, read-out: Activity
KARPAS-422 [32] = assay: Induction of apoptosis in human KARPAS-422 cells assessed as late apoptotic cells at 5 nM incubated for 72 hrs again compound diluted in growth medium measured after 96 hrs by annexin-V FITC and propidium iodide based flow cytometry analysis (reference value: 0.74%); format: functional; settings: time 168 hrs
KARPAS-422 [33] = assay: Induction of cell cycle arrest in human KARPAS-422 cells assessed as accumulation of cells at G1 phase at 2.5 nM incubated for 72 hrs again compound diluted in growth medium measured after 96 hrs by propidium iodide staining based flow cytometry analysis (reference value: 47.71%); format: functional; settings: time 168 hrs
KARPAS-422 [34] = assay: Induction of cell cycle arrest in human KARPAS-422 cells assessed as accumulation of cells at G2 phase at 10 nM incubated for 72 hrs again compound diluted in growth medium measured after 96 hrs by propidium iodide staining based flow cytometry analysis (reference value: 16.41%); format: functional; settings: time 168 hrs

Compound: CCN(c1cc(-c2ccc3c(c2)n(C)c(=O)n3C2CCN(C)CC2)cc(C(=O)NCc2c(C)cc(C)[nH]c2=O)c1C)C1CCC(N(C)C)CC1 (centres undefined)
- Activity (KARPAS-422 [1]): 4.8%
- half-life at 1 µM [2]: 2.96 h
- Activity (KARPAS-422 [3]): 26.31%
- viability at 0.02 µM (KARPAS-422 [4]): 73.8%
- Activity (KARPAS-422 [5]): 15.64%
- IC50 [6]: 0.08 nM
- Activity (KARPAS-422 [7]): 31.43%
- IC50 [8]: 0.03 nM
- Activity (KARPAS-422 [9]): 5.47%
- Activity (KARPAS-422 [10]): 24.24%
- Activity (KARPAS-422 [11]): 65.03%
- Activity (KARPAS-422 [12]): 55.91%
- Activity (KARPAS-422 [13]): 2.96%
- microsomal CLint at 1 µM [14]: 7.87 µL/min/mg
- Activity (KARPAS-422 [15]): 2.29%
- Activity (KARPAS-422 [16]): Dose-Dependent Effect
- IC50 (KARPAS-422 [17]): 3.52 nM
- Activity (KARPAS-422 [18]): 3.84%
- Activity (KARPAS-422 [19]): 4.23%
- Activity (KARPAS-422 [20]): 59.1%
- Activity (KARPAS-422 [21]): 7.09%
- Activity (KARPAS-422 [22]): 7.93%
- viability at 0.0025 µM (KARPAS-422 [23]): 89.3%
- Activity (KARPAS-422 [24]): 10.74%
- Activity (KARPAS-422 [25]): 2.57%
- Activity (KARPAS-422 [26]): 12.28%
- Activity (KARPAS-422 [27]): 28.46%
- Activity (KARPAS-422 [28]): 16.32%
- viability at 0.01 µM (KARPAS-422 [29]): 81.8%
- Activity (KARPAS-422 [30]): 6.81%
- viability at 0.005 µM (KARPAS-422 [31]): 86.7%
- Activity (KARPAS-422 [32]): 8.08%
- Activity (KARPAS-422 [33]): 52.26%
- Activity (KARPAS-422 [34]): 14.6%
